Source: paper PMC8869720, “A Sensitive Monoclonal-Antibody-Based ELISA for Forchlorfenuron Residue Analysis in Food Samples” (Biosensors, 2022)
Converted amounts (≈) assume the structure as drawn. Where two headings read alike, the source gives them in different places.

What was measured:
anti-CPPU mAb = test: optimized indirect competitive ELISA (icELISA) with anti-CPPU monoclonal antibody; assay type: binding, mouse; conditions: for Cross-Reactivity: CR (%) = IC50 CPPU/IC50 structural analogue × 100
Protocol: (§1) The icELISA protocol was performed as described previously. Briefly, 100 µL/well of coating antigen (1 µg/mL in CBS) was added to 96-well microtiter plates and stored at 37 °C overnight. The plate was rinsed twice with washing buffer and blocked by PBST containing 5% skimmed milk powder (120 µL/well) for 3 h at 37 °C. Then, the plate was rinsed twice and dried at 37 °C for 60 min. CPPU standard in PBS (50 µL) and the antibodies diluted in PBS (50 µL) were added and incubated at 37 °C for 40 min. After rinsing five times, the goat anti-mouse IgG-HRP was added (100 µL/well), followed by incubation for 30 min at 37 °C. After rinsing five times, the TMB solution (100 µL/well) was added and incubated for another 10 min at 37 °C. Stopping reagent (50 µL/well) was injected into each well to stop the chromogenic reaction, and the absorbance at 450 nm was measured using a microplate reader.
Many reports have shown that the immunoassay is an equilibrium binding reaction, and the experimental parameters used can affect the performance of the ELISA [28, 31, 32, 33]. In order to improve sensitivity of the established icELISA, the assay was optimized on concentrations of coating antigen and antibody, working buffer, and IgG-HRP dilution multiple. A standard curve for CPPU was obtained under optimal conditions by four-parameter sigmoidal fitting with Origin 9.0 software (OriginLab Corporation, Northampton, MA, USA). The IC10, IC20, IC50, and IC80 values correspond to the CPPU concentration levels that inhibit 10%, 20%, 50%, and 80% of the binding between mAb and the coating antigen, respectively. The IC10 value represents the LOD of the assay. The concentration levels from IC20 to IC80 are the linear range of the assay.
To evaluate the specificity of the mAb against CPPU, CR values with six structural analogs were chosen for evaluation. The CR values were calculated using Equation (1):CR (%) = IC50 CPPU/IC50 structural analogue × 100(1)

[1] = test system: rabbit polyclonal antibody; set-up: method as in earlier work; conditions: rabbit polyclonal antibody icELISA; cited from earlier work
[2] = test system: mice antisera against CPPU; test: icELISA characterization of mice antisera: inhibition by CPPU; assay type: binding, mouse; conditions: 1 μg/mL of competitor
Protocol: At the first immunization, each eight-week-old Balb/c female mouse was injected subcutaneously with 200 µL of an emulsion containing an equal volume of immunogen (1.0 mg/mL) and Freund’s complete adjuvant. In the subsequent booster immunizations, Freund’s incomplete adjuvant was substituted for Freund’s complete adjuvant and was injected at two-week intervals. After the third booster injection, the antisera were collected 7 days after each injection and checked by icELISA.
as §1

antisera to CPPU = test system: antisera to CPPU; set-up: method as in PMID 18989973, PMID 20681638, PMID 22526663; conditions: high-affinity antisera, Abad-Fuentes group; cited from earlier work
[3] = test system: monoclonal antibody (mAb); set-up: method as in doi:10.14088/j.cnki.issn0439-8114.2016.21.037; conditions: immunogen CPPU-H1-BSA, coating antigen CPPU-H2-OVA; cited from earlier work
monoclonal antibody = test system: monoclonal antibody; set-up: method as in PMID 22526663; conditions: previous mAb-based ELISA for CPPU; cited from earlier work
[4] = optimum conditions: coating antigen 250 ng/mL, antibody 1:8000 dilution, PBS, IgG-HRP 1:5000

O=C(O)c1nc(Cl)ccc1Cl [3,6-Dichloropicolinic]
Cross-Reactivity (anti-CPPU mAb): 0.63%
IC50 (anti-CPPU mAb; [4]): 0.1662 µg/mL

Cc1ccc(NC(=O)N(C)C)cc1Cl [Chlortoluron]
Cross-Reactivity (anti-CPPU mAb): 1.62%
IC50 (anti-CPPU mAb; [4]): 0.06434 µg/mL

CON(C)C(=O)Nc1ccc(Cl)c(Cl)c1 [Linuron]
Cross-Reactivity (anti-CPPU mAb): 0.46%
IC50 (anti-CPPU mAb; [4]): 0.22643 µg/mL

Nc1c(Cl)c(Cl)nc(C(=O)O)c1Cl [Picloram]
Cross-Reactivity (anti-CPPU mAb): 0.23%
IC50 (anti-CPPU mAb; [4]): 0.45072 µg/mL

CN(C)C(=O)Nc1ccc(Cl)c(Cl)c1 [Diuron]
Cross-Reactivity (anti-CPPU mAb): 0.13%
IC50 (anti-CPPU mAb; [4]): 0.82379 µg/mL

O=C(Nc1ccccc1)Nc1ccnc(Cl)c1 [CPPU, Forchlorfenuron]
IC50 [1]: 0.048 µg/mL (≈ 0.194 µM)
LOD [1]: 1 ng/mL
Inhibition of CPPU ([2]; immunogen CPPU-COOH-BSA, coating antigen CPPU-COOH-OVA): 58.4%
Inhibition of CPPU ([2]; immunogen CPPU-COOH-KLH, coating antigen CPPU-COOH-BSA): 55.6%
Inhibition of CPPU ([2]; immunogen CPPU-COOH-KLH, coating antigen CPPU-COOH-OVA): 55.9%
Inhibition of CPPU ([2]; immunogen CPPU-COOH-THY, coating antigen CPPU-COOH-BSA): 83.3%
Inhibition of CPPU ([2]; immunogen CPPU-COOH-THY, coating antigen CPPU-COOH-OVA): 82.9%
IC50 (antisera to CPPU): < 1 nM
Cross-Reactivity (anti-CPPU mAb): 100%
IC50 (anti-CPPU mAb; IC50 1.04 ng/mL given in nM, read-out: IC50): 4.2 nM
IC50 (anti-CPPU mAb; [4]): 0.00104 µg/mL
limit of detection (LOD, IC10) (anti-CPPU mAb; optimum conditions, IC10 value represents the LOD): 0.00016 µg/mL
IC50 [3]: 0.00389 µg/mL (≈ 0.0157 µM)

O=C(Nc1ccccc1)Nc1cnns1 [Thidiazuron (TDZ), Thidiazuron]
Cross-Reactivity (anti-CPPU mAb): 5.36%
Cross-Reactivity (anti-CPPU mAb; listed as TDZ): less than 6%
IC50 (anti-CPPU mAb; [4]): 0.01942 µg/mL
cross-reactivity (CR) (monoclonal antibody): 71%
